One may read the EC50 as the concentration that produces a half-maximal response. The term Emax denotes the maximal effect, on the per cent scale that the assay sets.

The target in data set [1] is T1, hERG potassium channel (Homo sapiens, UniProt Q12809).
T1 construct: host or cells: CHO cells
Briefly: hERG potassium channel inhibition test (automatic patch clamp). The settings on record: pH 7.4, hERG-expressing CHO cells, tail current, read-out: hERG channel inhibitory action. In kind it is cell-based. The method, then: hERG (Human Ether-A-Go-Go-Related Gene) Potassium Channel Inhibition Test
The test was performed with Port-a-Patch automatic patch clump apparatus (Nanion Technologies) using hERG channel-stably expressing CHO cells (purchased from Channelopathy Foundation). The membrane potential of the cells was maintained at −80 mV, then there were applied a depolarization pulse at +20 mV for 1.5 seconds, and a following test pulse at −50 mV for 1.5 seconds at a frequency of 1 time per 10 seconds, and the hERG current was confirmed as a tail current induced by the test pulse. The test compound was dissolved in an extracellular fluid (137 mM NaCl, 4 mM KCl, 1.8 mM CaCl2, 1 mM MgCl2, 10 mM D(+)-glucose, 10 mM HEPES, pH 7.4), and the solution was refluxed at room temperature for 5 minutes. The inhibition ratio was obtained from the ratio of the tail current value observed after the compound was applied based on the tail current value observed before the compound was applied, which was taken as 100%.
(The hERG channel carries a current that helps repolarise heart muscle cells.)

Data set [2] can be described thus: Metabolic stability test. In kind it is in vitro ADME. The conditions noted are these: liver microsomes; human hepatic microsomes, 0 to 60 minutes; read-out: metabolic clearance CLint. How it is done: Human hepatic microsomes and a test substance were reacted for a certain period of time (0 to 60 minutes). The test substance, which was not metabolized in the reaction sample, was measured, and remaining ratio was calculated. The test substance-remaining ratio at the time when the reaction time is 0 hour is taken as 100%. The remaining ratio after incubation was plotted against time as a log-linear plot to obtain a regression line (y=100 e^−kt, k=inclination of straight line: clearance rate constant), and metabolic clearance CLint (mL/min/kg) was calculated by using the following equation. CLint*=k(−min)×52.5(mg MS protein/g liver)×26(g liver/kg)/MS protein (mg MS protein/mL) • *: Davies, B. and Morris T., Physiological parameters in laboratory animals and humans, Pharm. Res., 10(7)1093-1095, 1993 (Test Results)
Background: Microsomes from liver hold many membrane-bound enzymes, among them those of drug oxidation.

Data set [3] concerns the target T2, human opioid κ receptor (Homo sapiens, UniProt P41145).
T2 construct: host or cells: CHO cells
Briefly: Opioid receptor function test (Lance Ultra cAMP Kit), κ receptor. In kind it is cell-based. The settings on record: for EC50: CHO cells expressing human κ receptor, cAMP, in the presence of forskolin; for Emax: ratio to maximum reaction of control drug U-69593 taken as 100%. The method, then: (§1) Opioid Receptor Function Test
(§2) The functional activities of the compounds provided by the present invention on the μ, δ, and κ opioid receptors were investigated.
(§3) The test was performed by using Lance Ultra cAMP Kit (PerkinElmer) according to a method predetermined for the kit. In the evaluation of the agonistic activity, CHO cells expressing each of the human opioid receptors (δ, μ, and κ, accession numbers and catalog numbers are mentioned below) and 10 μM of each test compound were reacted for 30 minutes in an assay buffer (1× HBSS, […], pH 7.4, […] (isobutylmethylxanthine), 7.5% BSA) in the presence of forskolin. Subsequently, the cAMP detection reagent included in the kit was added, and 1 hour afterward, time-resolved fluorescence measurement was performed by using the EnVision plate reader (PerkinElmer). The test compounds and the control drugs (δ: SNC80, μ: DAMGO, κ: U-69593) were evaluated in a concentration range of 10^−12 to 10^−5 M, a dose-response curve of each test compound was obtained from the fluorescence values at 665 nm, and EC50 value and the Emax value were calculated. The Emax value was calculated as a ratio of the maximum reaction of the test compound to the maximum reaction of each control drug, which is taken as 100%.
(§4) • δ: Catalog No. CT4607, Accession No. NM_000911.2 • μ: Catalog No. CT4605, Accession No. NM_000914 • κ: Catalog No. CT4606, Accession No. NM_000912 (ChanTest Corporation)

In data set [4] the target is T3, human opioid δ receptor (Homo sapiens, UniProt P41143).
T3 construct: host or cells: CHO cells
Briefly: Opioid receptor function test (Lance Ultra cAMP Kit), δ receptor. In kind it is cell-based. The settings on record: for EC50: CHO cells expressing human δ receptor, cAMP, in the presence of forskolin; for Emax: ratio to maximum reaction of control drug SNC80 taken as 100%. The method, then:
as §1, §2, §3, §4

Data set [5] has as its system C57BL/6N male mice. Briefly: Mouse elevated plus maze test. In kind it is in vivo. The conditions noted are these: subcutaneous. How it is done: Mouse Elevated Plus Maze Test
For the test, 5 to 6 weeks old C57BL/6N male mice were used. On a plus maze apparatus consisting of a wall-less running route (open arm, width 6 cm, length 30 cm) and a running route with a wall (closed arm, width 6 cm, length 30 cm, height of wall 15 cm), and having a height of 40 cm, a mouse was put so as to be directed to the running route with a wall, and allowed to spontaneously enter into the plus maze. Each test substance was dissolved in saline or 0.005 N HCl in saline, and subcutaneously administered on the back 30 minutes before the start of the test. At the time of the start of the test, video recording with a video camera was started, the time at which the mouse entered into the plus maze is considered to be the start of the test, and exploratory behavior was recorded for 5 minutes. On the basis of the video image, staying times in the running routes were determined, and wall-less running route staying time ratio (%) was calculated.

In data set [6] the target is T4, human opioid μ receptor (Homo sapiens, UniProt P35372).
T4 construct: host or cells: CHO cells
Nature of the data set: Opioid receptor function test (Lance Ultra cAMP Kit), μ receptor. The conditions noted are these: for μ receptor reaction rate at the maximum concentration (reference value, marked *): maximum reaction not reached, maximum concentration 10 μM, DAMGO = 100%; for EC50: CHO cells expressing human μ receptor, cAMP, in the presence of forskolin, read-out: μ receptor EC50 value; for Emax: ratio to maximum reaction of control drug DAMGO taken as 100%. In kind it is cell-based. How it is done: as §1, §2, §3, §4

Data set [7] has as its system Wistar male rats. Nature of the data set: Rat elevated plus maze test. In kind it is in vivo. The settings on record: oral, 3 mg/kg, 2 hours before test (FIG. 6). The method, then: Rat Elevated Plus Maze Test
Anxiolytic effects of the compounds provided by the present invention were investigated by the rat elevated plus maze test.
For the test, 7 to 9 weeks old Wistar male rats were used. […] Each test substance was dissolved in a 4.5% aqueous solution of cyclodextrin, and orally administered 2 hours before the start of the test. The test data were automatically analyzed by using video image action analysis software (Smart3.0, PanLab S.L., PanLab), and wall-less running route staying time ratio (%) was calculated.

Marks after values point to notes of the source that are not given here. A value given as a limit tells only on which side of the number the result lay.

T4 sequence (P35372 whole entry): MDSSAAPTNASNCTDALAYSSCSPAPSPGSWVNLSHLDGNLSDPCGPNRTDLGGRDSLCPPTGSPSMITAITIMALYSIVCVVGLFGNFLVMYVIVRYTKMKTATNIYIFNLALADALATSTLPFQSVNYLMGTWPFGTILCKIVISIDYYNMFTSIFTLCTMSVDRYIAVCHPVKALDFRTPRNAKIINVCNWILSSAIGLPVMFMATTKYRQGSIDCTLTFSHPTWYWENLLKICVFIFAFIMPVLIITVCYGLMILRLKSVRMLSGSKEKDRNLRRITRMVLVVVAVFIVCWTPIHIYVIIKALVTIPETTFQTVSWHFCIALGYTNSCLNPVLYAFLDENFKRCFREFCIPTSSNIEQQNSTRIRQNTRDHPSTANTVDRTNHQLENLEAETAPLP
T3 sequence (P41143 whole entry): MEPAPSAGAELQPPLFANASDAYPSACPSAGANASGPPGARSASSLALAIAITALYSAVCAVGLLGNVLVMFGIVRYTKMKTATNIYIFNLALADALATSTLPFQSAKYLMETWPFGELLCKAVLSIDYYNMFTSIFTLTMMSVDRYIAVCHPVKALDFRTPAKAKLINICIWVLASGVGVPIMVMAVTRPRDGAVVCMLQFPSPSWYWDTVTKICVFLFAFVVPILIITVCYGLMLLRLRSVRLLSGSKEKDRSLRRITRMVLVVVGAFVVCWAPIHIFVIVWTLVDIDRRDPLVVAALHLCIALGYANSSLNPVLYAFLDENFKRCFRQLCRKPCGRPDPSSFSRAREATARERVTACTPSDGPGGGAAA
T1 sequence (Q12809 whole entry): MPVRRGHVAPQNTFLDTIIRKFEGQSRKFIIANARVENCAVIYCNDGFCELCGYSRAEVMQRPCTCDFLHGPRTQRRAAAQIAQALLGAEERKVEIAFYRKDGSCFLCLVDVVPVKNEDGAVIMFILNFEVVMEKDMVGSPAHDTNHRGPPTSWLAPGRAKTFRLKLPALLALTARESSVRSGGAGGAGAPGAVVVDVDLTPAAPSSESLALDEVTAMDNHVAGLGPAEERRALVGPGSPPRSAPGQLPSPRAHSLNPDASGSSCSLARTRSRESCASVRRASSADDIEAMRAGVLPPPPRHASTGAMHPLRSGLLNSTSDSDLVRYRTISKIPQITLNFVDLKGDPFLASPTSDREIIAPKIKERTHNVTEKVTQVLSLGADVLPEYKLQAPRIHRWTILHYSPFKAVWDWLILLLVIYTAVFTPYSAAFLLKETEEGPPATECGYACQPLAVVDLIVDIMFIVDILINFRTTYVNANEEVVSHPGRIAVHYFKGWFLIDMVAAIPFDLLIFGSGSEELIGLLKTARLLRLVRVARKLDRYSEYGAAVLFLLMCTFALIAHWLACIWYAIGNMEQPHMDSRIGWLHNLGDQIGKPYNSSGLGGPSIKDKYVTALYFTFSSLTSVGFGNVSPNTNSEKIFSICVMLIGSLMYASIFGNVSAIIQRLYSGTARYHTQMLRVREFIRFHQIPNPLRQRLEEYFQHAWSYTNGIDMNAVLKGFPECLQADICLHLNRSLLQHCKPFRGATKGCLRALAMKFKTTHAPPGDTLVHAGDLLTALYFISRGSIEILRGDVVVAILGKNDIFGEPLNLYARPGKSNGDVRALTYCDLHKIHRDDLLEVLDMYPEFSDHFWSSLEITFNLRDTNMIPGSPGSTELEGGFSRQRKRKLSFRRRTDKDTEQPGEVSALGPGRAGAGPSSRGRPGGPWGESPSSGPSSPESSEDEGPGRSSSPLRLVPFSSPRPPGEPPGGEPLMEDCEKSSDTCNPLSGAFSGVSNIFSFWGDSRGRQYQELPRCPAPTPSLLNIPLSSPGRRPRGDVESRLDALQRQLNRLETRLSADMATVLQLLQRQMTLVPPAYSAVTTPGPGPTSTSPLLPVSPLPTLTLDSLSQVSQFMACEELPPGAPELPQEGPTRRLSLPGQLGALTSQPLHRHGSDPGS
T2 sequence (P41145 whole entry): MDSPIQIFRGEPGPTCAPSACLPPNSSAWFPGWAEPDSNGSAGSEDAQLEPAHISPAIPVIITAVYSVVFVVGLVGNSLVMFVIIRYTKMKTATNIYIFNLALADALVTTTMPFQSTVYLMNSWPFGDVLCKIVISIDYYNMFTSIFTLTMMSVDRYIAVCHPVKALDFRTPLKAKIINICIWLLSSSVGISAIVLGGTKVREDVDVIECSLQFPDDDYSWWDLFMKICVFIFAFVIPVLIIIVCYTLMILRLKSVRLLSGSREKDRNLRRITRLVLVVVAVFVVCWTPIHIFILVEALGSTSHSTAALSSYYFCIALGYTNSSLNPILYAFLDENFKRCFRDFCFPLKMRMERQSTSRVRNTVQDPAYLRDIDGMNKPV

`O=C(c1cccc[n+]1[O-])N1C[C@H]2C[C@@]34CC[C@@H]1[C@@H]2[C@@]31CCN(CC2CC2)[C@@H]4Cc2ccc(O)cc21` [Example 1, 2-((1S,3aR,5aS,6R,11bR,11cS)-14-(cyclopropylmethyl)-10-hydroxy-2,3,3a,4,5,6,7,11c-octahydro-1H-6,11b-(epiminoethano)-1,5a-methanonaphtho[1,2-e]indole-3-carbonyl)pyridine 1-oxide]: the inhibition at 5 min, 10 µM in data set [1] was less than 50%. Further, the CLint scaled in data set [2] amounted to 19 mL/min/kg. In addition, in data set [3], the EC50 was more than 1 nM and the Emax is 12%. Also, in data set [4], the 50% effective concentration (EC50) is less than 3 nM and the Emax worked out at 88%. Besides, in data set [5] (3 mg/kg, 30 minutes before test (FIG. 1)), the “wall-less running route staying time ratio” value was “significantly increased”. In data set [6], the “μ receptor reaction rate at the maximum concentration (reference value, marked *)” value is 8.3* %.
Take `O=C(c1ccc[nH]c1=O)N1C[C@H]2C[C@@]34CC[C@@H]1[C@@H]2[C@@]31CCN(CC2CC2)[C@@H]4Cc2ccc(O)cc21` [Example 3, 3-((1S,3aR,5aS,6R,11bR,11cS)-14-(cyclopropylmethyl)-10-hydroxy-2,3,3a,4,5,6,7,11c-octahydro-1H-6,11b-(epiminoethano)-1,5a-methanonaphtho[1,2-e]indole-3-carbonyl)pyridin-2(1H)-one]: the inhibition at 5 min, 10 µM in data set [1] was less than 50%. Moreover, the EC50 in data set [3] was less than 1 nM; in data set [4], less than 3 nM; in data set [6], more than 1 nM. The Emax in data set [3] amounted to 15%; in data set [4] it was 98%; in data set [6], 20%. In addition, the results for the “wall-less running route staying time ratio” value in data set [7] and in data set [5] (dose not stated (FIGS. 3 to 5)) were “significantly increased” and “tendency of increasing”, respectively.
Turning to `Cn1c(C(=O)N2C[C@H]3C[C@@]45CC[C@@H]2[C@@H]3[C@@]42CCN(CC3CC3)[C@@H]5Cc3ccc(O)cc32)cccc1=O` [Example 10, 6-((1S,3aR,5aS,6R,11bR,11cS)-14-(cyclopropylmethyl)-10-hydroxy-2,3,3a,4,5,6,7,11c-octahydro-1H-6,11b-(epiminoethano)-1,5a-methanonaphtho[1,2-e]indole-3-carbonyl)-1-methylpyridin-2(1H)-one], the inhibition at 5 min, 10 µM in data set [1] was less than 50%. The CLint scaled in data set [2] came out at 13 mL/min/kg. In data set [3] (maximum reaction not reached, maximum concentration 10 μM, U-69593 = 100%), the “κ receptor reaction rate at the maximum concentration (reference value, marked *)” value is reported as −0.7* %. In data set [4], the EC50 was less than 3 nM. In data set [4], the maximal response (Emax) worked out at 74%. Moreover, the “wall-less running route staying time ratio” value is recorded as “significantly increased” in data set [7] and “tendency of increasing” in data set [5] (dose not stated (FIGS. 3 to 5)). Moreover, the “μ receptor reaction rate at the maximum concentration (reference value, marked *)” value in data set [6] is listed as 6.0* %.
With `Cn1cc(C(=O)N2C[C@H]3C[C@@]45CC[C@@H]2[C@@H]3[C@@]42CCN(CC3CC3)[C@@H]5Cc3ccc(O)cc32)ccc1=O` [Example 9, 5-((1S,3aR,5aS,6R,11bR,11cS)-14-(cyclopropylmethyl)-10-hydroxy-2,3,3a,4,5,6,7,11c-octahydro-1H-6,11b-(epiminoethano)-1,5a-methanonaphtho[1,2-e]indole-3-carbonyl)-1-methylpyridin-2(1H)-one], in data set [1], the inhibition at 5 min, 10 µM is less than 50%. For the same compound, the EC50 in data set [3] was less than 1 nM; in data set [4], less than 3 nM; in data set [6] it was less than 1 nM. The Emax came to 14% in data set [3], 74% in data set [4] and 15% in data set [6]. Moreover, in data set [5] (dose not stated (FIGS. 3 to 5)), the “wall-less running route staying time ratio” value was “tendency of increasing”.
With `O=C(c1ccc(=O)[nH]n1)N1C[C@H]2C[C@@]34CC[C@@H]1[C@@H]2[C@@]31CCN(CC2CC2)[C@@H]4Cc2ccc(O)cc21` [Example 16, 6-((1S,3aR,5aS,6R,11bR,11cS)-14-(cyclopropylmethyl)-10-hydroxy-2,3,3a,4,5,6,7,11c-octahydro-1H-6,11b-(epiminoethano)-1,5a-methanonaphtho[1,2-e]indole-3-carbonyl)pyridazin-3(2H)-one], the CLint scaled in data set [2] was found to be 18 mL/min/kg. For the same compound, the EC50 was less than 1 nM in data set [3], less than 3 nM in data set [4] and more than 1 nM in data set [6]. Also, the values for the Emax in data set [3], in data set [4] and in data set [6] were 29%, 92% and 19%, respectively.
